# Where a name gives a salt, the structure may show the parent alone. Read-outs that look alike come from different tables or passages of the source.
# Tests used:
# SUDHL10 cells [1] = assay: Induction of caspase-3/7 activity in SUDHL10 cells (Assay 4); assay type: cell-based
# Method in brief: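 Read-out: Caspase-Glo 3/7 luminescence (1 h, 37 °C) after cells, plated overnight, were treated with compounds for 3 h at 37 °C. Signal corrected for cell-free medium background and expressed relative to DMSO control mean.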
# SUDHL10 cells [2] = assay: Induction of cytotoxicity in SUDHL10 cells (Assay 6); assay type: cell-based; details: 5 h, CellTiter-Glo, read-out: Cytotox SUDHL10 IC50 (median)
# Method in brief: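 Following overnight seeding at 37 °C, cells are treated with compound for 5 h, after which CellTiter-Glo reagent is added and luminescence measured following a 15 min room-temperature shake.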
# BCL-XL = BCL-XL (Homo sapiens (Human), UniProt Q07817); assay: Protein-protein interaction assay BCL-XL/Bad BH3 peptide (BCL-XL assay, TR-FRET); assay type: binding; details: read-out: BCL-XL Assay IC50 (median)
# Method in brief: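 TR-FRET competition: 1 nM His-tagged human BCL-XL (1-212) versus 1 nM biotin-PEG Bad BH3 peptide tracer, buffer 50 mM Tris pH 7, NaCl, KF, DTT. Compound preincubated with protein 10 min at 22 °C; read after 1 h at 22 °C plus overnight at 4 °C. IC50 by 4-parameter regression of normalized ratios.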
# HMC-1-8 cells = assay: Antiproliferation assay HMC-1-8 (Assay 7); assay type: cell-based
# Method in brief: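 Cells are plated alongside a time-zero reference plate and held overnight at 37 °C. Treated plates are incubated 72 h, then ATP-based luminescence (CellTiter-Glo) is read. IC50 uses day 0 as baseline and DMSO as untreated control.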
# [3] = read-out: Caspase SUDHL10 EC50 (median); caspase-3/7 induction, 3 h
# [4] = 72 h, read-out: Antiproli HMC-1-8 IC50 median, 72 h, CellTiter-Glo
# [5] = Homo sapiens, SU-DHL10, 3 h, caspase-3/7 induction, 3 h; read-out: Caspase SUDHL10 EC50 (median)
# [6] = 72 h, CellTiter-Glo, read-out: Antiproli HMC-1-8 IC50 median
# [7] = caspase-3/7 induction, 3 h; read-out: Caspase SUDHL10 EC50 (median)
# [8] = 72 h, CellTiter-Glo; read-out: Antiproli HMC-1-8 IC50 median
# Chain of BCL-XL (Q07817 1-212): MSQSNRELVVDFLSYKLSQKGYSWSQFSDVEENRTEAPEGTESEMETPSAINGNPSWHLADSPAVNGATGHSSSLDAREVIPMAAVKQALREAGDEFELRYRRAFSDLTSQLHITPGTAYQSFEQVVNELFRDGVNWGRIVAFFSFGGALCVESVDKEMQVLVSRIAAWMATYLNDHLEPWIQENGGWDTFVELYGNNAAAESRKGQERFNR
SMILES,EC50 (SUDHL10 cells [1]; [3]),IC50 (BCL-XL),EC50 (SUDHL10 cells [1]; [5]),EC50 (SUDHL10 cells [1]; [7]),IC50 (SUDHL10 cells [2]),IC50 (HMC-1-8 cells; [4]),IC50 (HMC-1-8 cells; [6]),"IC50 (SUDHL10 cells [2]; Homo sapiens, SU-DHL10, 5 h)",IC50 (HMC-1-8 cells; [8]),"IC50 (HMC-1-8 cells; read-out: Antiproli HMC-1-8 IC50 median; 72 h, CellTiter-Glo)"
"Cc1c2c(nn1C)C(C1CC1)OCCCCn1c(C(=O)O)c(CCCOc3cccc4ccccc34)c3ccc(Cl)c-2c31 (single isomer, unassigned; enantiomer 1) [Example 35, (+)-4-chloro-15-cyclopropyl-2,3-dimethyl-7-{3-[(naphthalen-1-yl)oxy]propyl}-2,10,11,12,13,15-hexahydropyrazolo[4′,3′:9,10][1,6]oxazacycloundecino[8,7,6-hi]indole-8-carboxylic Acid N-ethylethanamine Salt (Enantiomer 1)]",5900 nM,> 20000 nM,–,–,6700 nM,19700 nM,–,–,–,–
"CCc1c2c(nn1C)C(CCC1CCOCC1)OCCCCn1c(C(=O)O)c(CCCOc3cccc4cc(F)ccc34)c3ccc(Cl)c-2c31 (racemic) [Example 60, (rac)-4-chloro-3-ethyl-7-{3-[(6-fluoronaphthalen-1-yl)oxy]propyl}-2-methyl-(15-rac)-[2-(oxan-4-yl)ethyl]-2,10,11,12,13,15-hexahydropyrazolo[4′,3′:9,10][1,6]oxazacycloundecino[8,7,6-hi]indole-8-carboxylic Acid]",–,15400 nM,77 nM,–,87 nM,–,951 nM,–,–,–
"CCc1c2c(nn1C)C(c1ccccc1)OCCCCn1c(C(=O)O)c(CCCOc3cccc4cc(F)ccc34)c3ccc(Cl)c-2c31 (racemic) [Example 59, (rac)-4-chloro-3-ethyl-7-{3-[(6-fluoronaphthalen-1-yl)oxy]propyl}-2-methyl-(15-rac)-phenyl-2,10,11,12,13,15-hexahydropyrazolo[4′,3′:9,10][1,6]oxazacycloundecino[8,7,6-hi]indole-8-carboxylic Acid]",–,> 20000 nM,570 nM,–,–,–,3410 nM,1000 nM,–,–
"CCc1c2c(nn1C)C(CCN1CCN(C)CC1)OCCCCn1c(C(=O)O)c(CCCOc3cccc4cc(F)ccc34)c3ccc(Cl)c-2c31 (racemic) [Example 71, (rac)-4-chloro-3-ethyl-7-{3-[(6-fluoronaphthalen-1-yl)oxy]propyl}-2-methyl-(15-rac)-[2-(4-methylpiperazin-1-yl)ethyl]-2,10,11,12,13,15-hexahydropyrazolo[4′,3′:9,10][1,6]oxazacycloundecino[8,7,6-hi]indole-8-carboxylic Acid—N-ethylethanamine Salt (Mixture 2 Od Stereoisomers)]",41 nM,> 20000 nM,–,–,36 nM,–,–,–,–,1370 nM
"Cc1c2c(nn1C)C(CCO)OCCCCn1c(C(=O)O)c(CCCOc3cccc4ccccc34)c3ccc(Cl)c-2c31 (single isomer, unassigned; enantiomer 2) [Example 32, (−)-4-chloro-15-(2-hydroxyethyl)-2,3-dimethyl-7-{3-[(naphthalen-1-yl)oxy]propyl}-2,10,11,12,13,15-hexahydropyrazolo[4′,3′:9,10][1,6]oxazacycloundecino[8,7,6-hi]indole-8-carboxylic Acid (Enantiomer 2)]",–,> 20000 nM,–,> 33000 nM,> 33000 nM,–,–,–,> 33000 nM,–
"CCc1c2c(nn1C)C(C(F)(F)F)OCCCCn1c(C(=O)O)c(CCCOc3cccc4ccccc34)c3ccc(Cl)c-2c31 (single isomer, unassigned; enantiomer 1) [Example 33, (+)-4-chloro-3-ethyl-2-methyl-7-{3-[(naphthalen-1-yl)oxy]propyl}-15-(trifluoromethyl)-2,10,11,12,13,15-hexahydropyrazolo[4′,3′:9,10][1,6]oxazacycloundecino[8,7,6-hi]indole-8-carboxylic Acid—N-ethylethanamine Salt (Enantiomer 1)]",4500 nM,> 20000 nM,–,–,3700 nM,15000 nM,–,–,–,–
"Cc1c2c(nn1C)C(CCN1CCOCC1)OCCCCn1c(C(=O)O)c(CCCOc3cccc4cc(F)ccc34)c3ccc(Cl)c-2c31 (racemic) [Example 16, (rac)-4-chloro-7-{3-[(6-fluoronaphthalen-1-yl)oxy]propyl}-2,3-dimethyl-15-[2-(morpholin-4-yl)ethyl]-2,10,11,12,13,15-hexahydropyrazolo[4′,3′:9,10][1,6]oxazacycloundecino[8,7,6-hi]indole-8-carboxylic Acid]",–,> 20000 nM,19 nM,–,–,–,322 nM,22 nM,–,–

# Further lines, with some results ahead:
EC50 (SUDHL10 cells [1]; [3]),IC50 (BCL-XL),EC50 (SUDHL10 cells [1]; [5]),EC50 (SUDHL10 cells [1]; [7]),SMILES,IC50 (SUDHL10 cells [2]),IC50 (HMC-1-8 cells; [4]),IC50 (HMC-1-8 cells; [6]),"IC50 (SUDHL10 cells [2]; Homo sapiens, SU-DHL10, 5 h)",IC50 (HMC-1-8 cells; [8]),"IC50 (HMC-1-8 cells; read-out: Antiproli HMC-1-8 IC50 median; 72 h, CellTiter-Glo)"
–,13300 nM,33 nM,–,"CCc1c2c(nn1C)C(CCC(C)(C)O)OCCCCn1c(C(=O)O)c(CCCOc3cccc4cc(F)ccc34)c3ccc(Cl)c-2c31 (racemic) [Example 74, (rac)-4-chloro-3-ethyl-7-{3-[(6-fluoronaphthalen-1-yl)oxy]propyl}-(15-rac)-(3-hydroxy-3-methylbutyl)-2-methyl-2,10,11,12,13,15-hexahydropyrazolo[4′,3′:9,10][1,6]oxazacycloundecino[8,7,6-hi]indole-8-carboxylic Acid]",–,–,397 nM,55 nM,–,–
–,> 20000 nM,–,99 nM,"CCc1c2c(nn1C)C(CCO)OCCCCn1c(C(=O)O)c(CCCOc3cccc4cc(F)ccc34)c3ccc(Cl)c-2c31 (single isomer, unassigned; enantiomer 1) [Example 45, (+)-4-chloro-3-ethyl-7-{3-[(6-fluoronaphthalen-1-yl)oxy]propyl}-15-(2-hydroxyethyl)-2-methyl-2,10,11,12,13,15-hexahydropyrazolo[4′,3′:9,10][1,6]oxazacycloundecino[8,7,6-hi]indole-8-carboxylic Acid (Enantiomer 1)]",73 nM,–,–,–,2140 nM,–
–,13200 nM,1100 nM,–,"CCc1c2c(nn1C)C(Cc1ccccc1)OCCCCn1c(C(=O)O)c(CCCOc3cccc4cc(F)ccc34)c3ccc(Cl)c-2c31 (racemic) [Example 92, (rac)-(rac-15)-benzyl-4-chloro-3-ethyl-7-{3-[(6-fluoro-1-naphthyl)oxy]propyl}-2-methyl-2,10,11,12,13,15-hexahydropyrazolo[4′,3′:9,10][1,6]oxazacycloundecino[8,7,6-hi]indole-8-carboxylic Acid]",–,–,7070 nM,1400 nM,–,–
1500 nM,18100 nM,–,–,"CCc1c2c(nn1C)C(C1CC1)OCCCCn1c(C(=O)O)c(CCCOc3cccc4cc(F)ccc34)c3ccc(Cl)c-2c31 (single isomer, unassigned; enantiomer 1) [Example 39, (+)-4-chloro-15-cyclopropyl-3-ethyl-7-{3-[(6-fluoronaphthalen-1-yl)oxy]propyl}-2-methyl-2,10,11,12,13,15-hexahydropyrazolo[4′,3′:9,10][1,6]oxazacycloundecino[8,7,6-hi]indole-8-carboxylic Acid—N-ethylethanamine Salt (Enantiomer 1)]",1400 nM,12300 nM,–,–,–,–
–,> 20000 nM,980 nM,–,"Cc1c2c(nn1C)C(CCO)OCCCCn1c(C(=O)O)c(CCCOc3cccc4ccccc34)c3ccc(Cl)c-2c31 (racemic) [Example 26, (rac)-4-chloro-15-(2-hydroxyethyl)-2,3-dimethyl-7-{3-[(naphthalen-1-yl)oxy]propyl}-2,10,11,12,13,15-hexahydropyrazolo[4′,3′:9,10][1,6]oxazacycloundecino[8,7,6-hi]indole-8-carboxylic Acid]",–,–,6780 nM,870 nM,–,–
–,> 20000 nM,42 nM,–,"CCc1c2c(nn1C)C(CCCN1CCOCC1)OCCCCn1c(C(=O)O)c(CCCOc3cccc4cc(F)ccc34)c3ccc(Cl)c-2c31 (racemic) [Example 65, (rac)-4-chloro-3-ethyl-7-{3-[(6-fluoronaphthalen-1-yl)oxy]propyl}-2-methyl-(15-rac)-[3-(morpholin-4-yl)propyl]-2,10,11,12,13,15-hexahydropyrazolo[4′,3′:9,10][1,6]oxazacycloundecino[8,7,6-hi]indole-8-carboxylic Acid]",–,–,400 nM,100 nM,–,–
–,19800 nM,7200 nM,–,"Cc1c2c(nn1C)C(C1CC1)OCCCCn1c(C(=O)O)c(CCCOc3cccc4ccccc34)c3ccc(Cl)c-2c31 (racemic) [Example 28, (rac)-4-Chloro-15-cyclopropyl-2,3-dimethyl-7-{3-[(naphthalen-1-yl)oxy]propyl}-2,10,11,12,13,15-hexahydropyrazolo[4′,3′:9,10][1,6]oxazacycloundecino[8,7,6-hi]indole-8-carboxylic Acid]",–,–,20800 nM,8400 nM,–,–
